Results reported in publication PMC8445441, “Elucidating the mechanism by which synthetic helper peptides sensitize Pseudomonas aeruginosa to multiple antibiotics” (PLoS Pathogens, 2021).
Like-named read-outs stand apart in the source and are kept apart here.

How the values were obtained:
P. aeruginosa HM-214 = conditions: strain HM-214; antibiotic + D-11 (MICb/MICbc 128/4)
How it was run: (§1)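 Triplicate microdilution MICs: MHB, two-fold series, equal-volume inoculum from ~1 × 10^6 CFU/mL suspension, 37 °C, 18 h, lowest concentration lacking visible growth.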

P. aeruginosa ATCC27853 = test: microbe, parasite or virus in culture; parameters: MICa: MIC of the antibiotic / MICac: MIC of the antibiotic in the combination: unit not given beside the values; conditions: for MIC: Pseudomonas aeruginosa, ATCC27853, 18 h, read-out: MICa: MIC of the antibiotic; for FICI / MICac: MIC of the antibiotic in the combination: strain ATCC27853; for FICI: antibiotic + D-11 (MICb/MICbc 32/4); for MICac: MIC of the antibiotic in the combination: with D-11 at MICbc 4, unit not given
How it was run: as §1

P. aeruginosa NR-31040 = test: microbe, parasite or virus in culture; parameters: MICa: MIC of the antibiotic / MICac: MIC of the antibiotic in the combination: unit not given beside the values; conditions: for FICI: antibiotic + D-11 (MICb/MICbc 128/4); for MICac: MIC of the antibiotic in the combination: with D-11 at MICbc 4
How it was run: as §1

P. aeruginosa PA14 = test: microbe, parasite or virus in culture; parameters: MICa: MIC of the antibiotic / MICac: MIC of the antibiotic in the combination: unit not given beside the values; conditions: for MIC: Pseudomonas aeruginosa, PA14, 18 h, read-out: MICa: MIC of the antibiotic; for FICI / MICac: MIC of the antibiotic in the combination: strain PA14; for FICI: antibiotic + D-11 (MICb/MICbc 128/4); for MICac: MIC of the antibiotic in the combination: with D-11 at MICbc 4, unit not given
How it was run: as §1

P. aeruginosa NR-31041 = test: microbe, parasite or virus in culture; parameters: MICa: MIC of the antibiotic / MICac: MIC of the antibiotic in the combination: unit not given beside the values; conditions: for MIC: Pseudomonas aeruginosa, NR31041, 18 h, read-out: MICa: MIC of the antibiotic; for FICI / MICac: MIC of the antibiotic in the combination: strain NR-31041; for FICI: antibiotic + D-11 (MICb/MICbc 64/4); for MICac: MIC of the antibiotic in the combination: with D-11 at MICbc 4, unit not given
How it was run: as §1

P. aeruginosa PAK = test: microbe, parasite or virus in culture; parameters: MICa: MIC of the antibiotic / MICac: MIC of the antibiotic in the combination: unit not given beside the values; conditions: for MIC: Pseudomonas aeruginosa, 18 h, read-out: MICa: MIC of the antibiotic; for FICI / MICac: MIC of the antibiotic in the combination: strain PAK; for FICI: antibiotic + D-11 (MICb/MICbc 64/4); for MICac: MIC of the antibiotic in the combination: with D-11 at MICbc 4, unit not given
How it was run: as §1

[1] = test system: clinical P. aeruginosa isolates; test: microbe, parasite or virus in culture; conditions: Pseudomonas aeruginosa, 18 h, antibiotic alone
How it was run: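 MIC is the lowest drug concentration showing no visible growth after 18 h at 37 °C. Two-fold dilutions in MHB were combined with an equal volume of bacterial suspension (about 1 × 10^6 CFU/mL), following CLSI broth microdilution, in triplicate.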

P. aeruginosa AUMC-Pa-4 = test: microbe, parasite or virus in culture; conditions: for FICI: antibiotic + D-11 (MICb/MICbc 128/4); for MICac: MIC of the antibiotic in the combination: with D-11 at MICbc 4
How it was run: as §1

P. aeruginosa AUMC-Pa-3 = test: microbe, parasite or virus in culture; conditions: for MIC: Pseudomonas aeruginosa, AUMCPA3, 18 h, read-out: MICa: MIC of the antibiotic; for FICI / MICac: MIC of the antibiotic in the combination: strain AUMC-Pa-3; for FICI: antibiotic + D-11 (MICb/MICbc 128/4); for MICac: MIC of the antibiotic in the combination: with D-11 at MICbc 4, unit not given
How it was run: as §1

P. aeruginosa PAO1 = test: microbe, parasite or virus in culture; conditions: PAO1; for MIC: Pseudomonas aeruginosa, PAO1, 18 h, read-out: MICa: the MIC of antibiotics, S3 Table, antibiotic alone; for FICI / MICac: the MIC for the antibiotic in the combination: S3 Table
How it was run: as §1

P. aeruginosa AUMC-Pa-6 = test: microbe, parasite or virus in culture; conditions: for FICI: antibiotic + D-11 (MICb/MICbc 64/4); for MICac: MIC of the antibiotic in the combination: with D-11 at MICbc 4
How it was run: as §1

P. aeruginosa AUMC-Pa-5 = test: microbe, parasite or virus in culture; conditions: for FICI: antibiotic + D-11 (MICb/MICbc 64/4); for MICac: MIC of the antibiotic in the combination: with D-11 at MICbc 4
How it was run: as §1

P. aeruginosa AUMC-Pa-2 = conditions: strain AUMC-Pa-2; antibiotic + D-11 (MICb/MICbc 64/4)
How it was run: as §1

P. aeruginosa AUMC-Pa-1 = conditions: strain AUMC-Pa-1; antibiotic + D-11 (MICb/MICbc 128/4)
How it was run: as §1

[2] = strain NR-31040, unit not given
[3] = read-out: Antibiotic sensibility (MIC) of clinical P. aeruginosa isolate AUMC-Pa-1, strain AUMC-Pa-1
[4] = read-out: Antibiotic sensibility (MIC) of clinical P. aeruginosa isolate AUMC-Pa-2, strain AUMC-Pa-2
[5] = read-out: Antibiotic sensibility (MIC) of clinical P. aeruginosa isolate AUMC-Pa-3, strain AUMC-Pa-3
[6] = read-out: Antibiotic sensibility (MIC) of clinical P. aeruginosa isolate AUMC-Pa-4, strain AUMC-Pa-4
[7] = read-out: Antibiotic sensibility (MIC) of clinical P. aeruginosa isolate AUMC-Pa-5, strain AUMC-Pa-5
[8] = read-out: Antibiotic sensibility (MIC) of clinical P. aeruginosa isolate AUMC-Pa-6, strain AUMC-Pa-6
[9] = read-out: Antibiotic sensibility (MIC) of clinical P. aeruginosa isolate HM-214, strain HM-214
[10] = read-out: Antibiotic sensibility (MIC) of clinical P. aeruginosa isolate NR-31040, strain NR-31040
[11] = read-out: Antibiotic sensibility (MIC) of clinical P. aeruginosa isolate NR-31041, strain NR-31041
[12] = strain AUMC-Pa-4, unit not given
[13] = strain AUMC-Pa-6, unit not given
[14] = strain AUMC-Pa-5, unit not given

`CO[C@H]1/C=C/O[C@@]2(C)Oc3c(C)c(O)c4c(O)c(c5c(nc6cc(C)ccn65)c4c3C2=O)NC(=O)/C(C)=C\C=C\[C@H](C)[C@H](O)[C@@H](C)[C@@H](O)[C@@H](C)[C@H](OC(C)=O)[C@@H]1C` [Rifaximin] showed an FICI (P. aeruginosa HM-214) of 0.063, an MIC (P. aeruginosa ATCC27853) of 16 µM and an FICI (P. aeruginosa ATCC27853) of 0.156. The “MICac: MIC of the antibiotic in the combination” value (from here on “MICac: MIC of the antibiotic”) (P. aeruginosa ATCC27853) was 0.5, the FICI (P. aeruginosa NR-31040; strain NR-31040) was 0.094 and the “MICa: MIC of the antibiotic” value (P. aeruginosa NR-31040; strain NR-31040, antibiotic alone, unit not given) was 16. For the same molecule, the “MICac: MIC of the antibiotic” value (P. aeruginosa NR-31040; [2]) was 1, the MIC (P. aeruginosa PA14) was over 128 µM and the FICI (P. aeruginosa PA14) was 0.094. The “MICac: MIC of the antibiotic” value (P. aeruginosa PA14) was 16, the MIC (P. aeruginosa NR-31041) was 16 µM and the FICI (P. aeruginosa NR-31041) was 0.078. For the same molecule, the “MICac: MIC of the antibiotic” value (P. aeruginosa NR-31041) was 0.25, the MIC (P. aeruginosa PAK) was 16 µM and the FICI (P. aeruginosa PAK) was 0.094. The “MICac: MIC of the antibiotic” value (P. aeruginosa PAK) was 0.5, the MIC [1, 3] was 32 µM and the MIC [1, 4] was 8 µM. The MIC [1, 5] was 8 µM, the MIC [1, 6] was 8 µM and the MIC [1, 7] was 32 µM. It also gave an MIC [1, 8] of 16 µM, an MIC [1, 9] of 8 µM and an MIC [1, 10] of 16 µM. For the same molecule, the MIC [1, 11] was 16 µM, the FICI (P. aeruginosa AUMC-Pa-4; strain AUMC-Pa-4) was 0.281 and the “MICa: MIC of the antibiotic” value (P. aeruginosa AUMC-Pa-4; strain AUMC-Pa-4, antibiotic alone, unit not given) was 8. For the same molecule, the “MICac: MIC of the antibiotic” value (P. aeruginosa AUMC-Pa-4; [12]) was 2, the MIC (P. aeruginosa AUMC-Pa-3) was 8 µM and the FICI (P. aeruginosa AUMC-Pa-3) was 0.063. The “MICac: MIC of the antibiotic” value (P. aeruginosa AUMC-Pa-3) was 0.25, the MIC (P. aeruginosa PAO1) was 16 µM and the FICI (P. aeruginosa PAO1; antibiotic + 2 μM D-11) was 0.066. For the same molecule, the FICI (P. aeruginosa PAO1; antibiotic + 4 μM D-11) was 0.127, the “MICac: the MIC for the antibiotic in the combination” value (shortened to “MICac: the MIC for the antibiotic”) (P. aeruginosa PAO1; with 2 μM D-11) was 0.0625 µM and the “MICac: the MIC for the antibiotic” value (P. aeruginosa PAO1; with 4 μM D-11) was 0.03125 µM. The FICI (P. aeruginosa AUMC-Pa-6; strain AUMC-Pa-6) was 0.313, the “MICa: MIC of the antibiotic” value (P. aeruginosa AUMC-Pa-6; strain AUMC-Pa-6, antibiotic alone, unit not given) was 16 and the “MICac: MIC of the antibiotic” value (P. aeruginosa AUMC-Pa-6; [13]) was 4. For the same molecule, the FICI (P. aeruginosa AUMC-Pa-5; strain AUMC-Pa-5) was 0.313, the “MICa: MIC of the antibiotic” value (P. aeruginosa AUMC-Pa-5; strain AUMC-Pa-5, antibiotic alone, unit not given) was 32 and the “MICac: MIC of the antibiotic” value (P. aeruginosa AUMC-Pa-5; [14]) was 8. The FICI (P. aeruginosa AUMC-Pa-2) was 0.094 and the FICI (P. aeruginosa AUMC-Pa-1) was 0.047.
`COc1cc(Cc2cnc(N)nc2N)cc(OC)c1OC` [Trimethoprim] showed an FICI (P. aeruginosa HM-214) of 0.281, an MIC (P. aeruginosa ATCC27853) of over 128 µM and an FICI (P. aeruginosa ATCC27853) of 0.250. The “MICac: MIC of the antibiotic” value (P. aeruginosa ATCC27853) was 32, the MIC (P. aeruginosa NR-31040; Pseudomonas aeruginosa, NR31040, 18 h, read-out: MICa: MIC of the antibiotic) was over 128 µM and the FICI (P. aeruginosa NR-31040; strain NR-31040) was 0.281. For the same molecule, the “MICac: MIC of the antibiotic” value (P. aeruginosa NR-31040; [2]) was 64, the MIC (P. aeruginosa PA14) was over 128 µM and the FICI (P. aeruginosa PA14) was 0.156. For the same molecule, the “MICac: MIC of the antibiotic” value (P. aeruginosa PA14) was 32, the MIC (P. aeruginosa NR-31041) was over 128 µM and the FICI (P. aeruginosa NR-31041) was 0.125. The “MICac: MIC of the antibiotic” value (P. aeruginosa NR-31041) was 16, the MIC (P. aeruginosa PAK) was over 128 µM and the FICI (P. aeruginosa PAK) was 0.188. The “MICac: MIC of the antibiotic” value (P. aeruginosa PAK) was 32, the MIC [1, 3] was over 128 µM and the MIC [1, 4] was over 128 µM. For the same molecule, the MIC [1, 5] was over 128 µM, the MIC [1, 6] was over 128 µM and the MIC [1, 7] was over 128 µM. It also gave an MIC [1, 8] of over 128 µM, an MIC [1, 9] of over 128 µM and an MIC [1, 10] of over 128 µM. The MIC [1, 11] was over 128 µM, the MIC (P. aeruginosa AUMC-Pa-4; Pseudomonas aeruginosa, AUMCPA4, 18 h, read-out: MICa: MIC of the antibiotic) was over 128 µM and the FICI (P. aeruginosa AUMC-Pa-4; strain AUMC-Pa-4) was 0.156. For the same molecule, the “MICac: MIC of the antibiotic” value (P. aeruginosa AUMC-Pa-4; [12]) was 16, the MIC (P. aeruginosa AUMC-Pa-3) was over 128 µM and the FICI (P. aeruginosa AUMC-Pa-3) was 0.094. The “MICac: MIC of the antibiotic” value (P. aeruginosa AUMC-Pa-3) was 16, the MIC (P. aeruginosa PAO1) was over 128 µM and the FICI (P. aeruginosa PAO1; antibiotic + 2 μM D-11) was 0.188. The FICI (P. aeruginosa PAO1; antibiotic + 4 μM D-11) was 0.188, the “MICac: the MIC for the antibiotic” value (P. aeruginosa PAO1; with 2 μM D-11) was 32 µM and the “MICac: the MIC for the antibiotic” value (P. aeruginosa PAO1; with 4 μM D-11) was 16 µM. For the same molecule, the MIC (P. aeruginosa AUMC-Pa-6; Pseudomonas aeruginosa, AUMCPA6, 18 h, read-out: MICa: MIC of the antibiotic) was over 128 µM, the FICI (P. aeruginosa AUMC-Pa-6; strain AUMC-Pa-6) was 0.313 and the “MICac: MIC of the antibiotic” value (P. aeruginosa AUMC-Pa-6; [13]) was 64. For the same molecule, the MIC (P. aeruginosa AUMC-Pa-5; Pseudomonas aeruginosa, AUMCPA5, 18 h, read-out: MICa: MIC of the antibiotic) was over 128 µM, the FICI (P. aeruginosa AUMC-Pa-5; strain AUMC-Pa-5) was 0.563 and the “MICac: MIC of the antibiotic” value (P. aeruginosa AUMC-Pa-5; [14]) was >128/128. For the same molecule, the FICI (P. aeruginosa AUMC-Pa-2) was 0.188 and the FICI (P. aeruginosa AUMC-Pa-1) was 0.156.
